Assay results from patent US20130303575A1, “ADMINISTRATION OF AN INHIBITOR OF HDAC” (priority 2007, published 2013).

How the values were obtained:
[1] = Plasma pharmacokinetics of oral SNDX-275 in patients with advanced and refractory solid tumors or lymphoma (Example 2); type: in vivo; conditions: human; for Cmax / AUC / Tmax / half-life: plasma, oral
Procedure: The initial dosing schedule was daily oral administration for 28 days and 14-day recovery period, constituting a 42-day cycle. […] Samples were immediately centrifuged at 3000 g for 10 minutes at 4° C. and then plasma was divided into two aliquots of at least 1 mL and frozen at −70° C. until the time of analysis. Plasma samples were assayed by a specific and sensitive high-performance liquid chromatographic assay with mass-spectrometric detection. […] The pharmacokinetic parameters of interest included peak plasma concentration (Cmax), time to peak concentration (Tmax), area under the plasma concentration versus time curve extrapolated to infinity (AUC), apparent oral clearance (CL/F), and the terminal half-life (T1/2, z). The peak plasma concentrations (Cmax) and the time to peak plasma concentrations (Tmax) were the observed values. The area under the plasma concentration versus time curve (AUC) was calculated using the linear trapezoidal method from time zero to the time of the final quantifiable concentration (AUCtf). The AUC was then extrapolated to infinity (AUCinf) by dividing the last measured concentration by the rate constant of the terminal phase (k), which was determined by linear-regression analysis of the final three or four time points of the ling-linear concentration time plot. […] Deviations of β from 1 correspond to deviations from ideal dose proportionality. […] All PK data are presented as mean±SD, except where otherwise indicated. […] One-way analysis of variance was performed to compare mean values using a two-sided Dunnett's test. Statistical calculations were performed using the Number Cruncher Statistical System 2001 series (J. L. Hintze, Kaysville, Utah). The cut-off for statistical significance was considered at P<0.05.

plasma proteins = assay: Plasma protein binding; type: in vitro ADME
[2] = PK of SNDX-275 in patients with metastatic melanoma (Example 4); conditions: human, in vivo; for Cmax: 7 mg
Procedure: The concentration after 8 hours after the dose was approximately 2 ng/mL.

[3] = Plasma pharmacokinetics of oral SNDX-275 in adults with advanced acute leukemias (Example 3); type: in vivo, human; conditions: for AUC / Cmax / half-life / Tmax: human, plasma, oral; for AUC: read-out: AUC (mean and SD); for Cmax: read-out: Cmax (mean and SD)
Procedure: Separated plasma was immediately frozen on dry ice and then stored at -70° C. until analysis. […] The pharmacokinetic parameters of interest included peak plasma concentration (Cmax), time to peak concentration (Tmax), area under the plasma concentration versus time curve extrapolated to infinity (AUC), apparent oral clearance (CL/F), and the terminal half-life (T1/2, z). […] The influence of the dose level on CL/F was evaluated using the Kruskal-Wallis' one-way analysis of ranks test, followed by the Dunn's multiple comparison test for identifying statistically significant group differences. These calculations were preformed with the software package NCSS version 2001 (Number Cruncher Statistical Systems, […], Utah).

[4] = Tolerability, DLT and MTD in patients with refractory solid tumors or lymphoma (Example 1); type: in vivo
Procedure: Tolerability was assessed by scheduled clinical assessments. Adverse events (AEs) were assessed using the National Cancer Institute Common Toxicity Criteria (CTC) version 2.0. […] MTD was defined as the highest dose at which no more than 1 of 6 patients experienced DLT during the first treatment cycle.

[5] = 4 mg/m2, 4 mg/m^2, first dose, with food, 7 patients

With Nc1ccccc1NC(=O)c1ccc(CNC(=O)OCc2cccnc2)cc1 [SNDX-275, N-(2-aminophenyl) 4-[N-(pyrid-3-yl)methyloxycarbonylaminomethyl]benzamide] the “interpatient variability in clearance, comparison for body-surface area correction” value ([1]; in vivo) was 39.5%, the Cmax ([1]; 2 mg/m2, 2 mg/m^2, q14-day, first dose, fed, 3 patients) was 1.72 ng/mL and the AUC ([1]; 2 mg/m2, 2 mg/m^2, q14-day, first dose, fed, 3 patients, read-out: AUC Mean) was 196 ng·h/mL. The Tmax ([1]; 2 mg/m2, 2 mg/m^2, q14-day, first dose, fed, 3 patients, read-out: Tmax Median) was 6 h, the half-life ([1]; 2 mg/m2, 2 mg/m^2, q14-day, first dose, fed, 3 patients, read-out: t1/2 Mean (converted)) was 80.2 h and the Cmax ([1]; 4 mg/m2, 4 mg/m^2, q14-day, first dose, fed, 3 patients) was 4.84 ng/mL. The AUC ([1]; 4 mg/m2, 4 mg/m^2, q14-day, first dose, fed, 3 patients, read-out: AUC Mean) was 392 ng·h/mL, the Tmax ([1]; 4 mg/m2, 4 mg/m^2, q14-day, first dose, fed, 3 patients, read-out: Tmax Median) was 6 h and the half-life ([1]; 4 mg/m2, 4 mg/m^2, q14-day, first dose, fed, 3 patients, read-out: t1/2 Mean (converted)) was 50.5 h. The Cmax ([1]; 6 mg/m2, 6 mg/m^2, q14-day, first dose, fed, 6 patients) was 9.59 ng/mL, the AUC ([1]; 6 mg/m2, 6 mg/m^2, q14-day, first dose, fed, 6 patients, read-out: AUC Mean) was 493 ng·h/mL and the Tmax ([1]; 6 mg/m2, 6 mg/m^2, q14-day, first dose, fed, 6 patients, read-out: Tmax Median) was 2 h. For the same compound, the half-life ([1]; 6 mg/m2, 6 mg/m^2, q14-day, first dose, fed, 6 patients, read-out: t1/2 Mean (converted)) was 52.8 h, the Cmax ([1]; 8 mg/m2, 8 mg/m^2, q14-day, first dose, fed, 5 patients) was 15.5 ng/mL and the AUC ([1]; 8 mg/m2, 8 mg/m^2, q14-day, first dose, fed, 5 patients, read-out: AUC Mean) was 358 ng·h/mL. The Tmax ([1]; 8 mg/m2, 8 mg/m^2, q14-day, first dose, fed, 5 patients, read-out: Tmax Median) was 2 h, the half-life ([1]; 8 mg/m2, 8 mg/m^2, q14-day, first dose, fed, 5 patients, read-out: t1/2 Mean (converted)) was 39.7 h and the Cmax ([1]; 10 mg/m2, 10 mg/m^2, q14-day, first dose, fed, 6 patients) was 45.1 ng/mL. For the same compound, the AUC ([1]; 10 mg/m2, 10 mg/m^2, q14-day, first dose, fed, 6 patients, read-out: AUC Mean) was 529 ng·h/mL, the Tmax ([1]; 10 mg/m2, 10 mg/m^2, q14-day, first dose, fed, 6 patients, read-out: Tmax Median) was 1.5 h and the half-life ([1]; 10 mg/m2, 10 mg/m^2, q14-day, first dose, fed, 6 patients, read-out: t1/2 Mean (converted)) was 51.6 h. The Cmax ([1]; 12 mg/m2, 12 mg/m^2, q14-day, first dose, fed, 4 patients) was 132 ng/mL, the AUC ([1]; 12 mg/m2, 12 mg/m^2, q14-day, first dose, fed, 4 patients, read-out: AUC Mean) was 680 ng·h/mL and the Tmax ([1]; 12 mg/m2, 12 mg/m^2, q14-day, first dose, fed, 4 patients, read-out: Tmax Median) was 0.5 h. It also gave a half-life ([1]; 12 mg/m2, 12 mg/m^2, q14-day, first dose, fed, 4 patients, read-out: t1/2 Mean (converted)) of 45 h, a Tmax ([1]; all doses 2 to 12 mg/m^2, q14-day, read-out: Tmax Grand median) of 1.75 h and a half-life ([1]; all doses 2 to 12 mg/m^2, q14-day, read-out: t1/2 Grand mean (apparent terminal half-life) (converted)) of 51.7 ± 21.6 h. It also gave a half-life ([1]; bi-exponential decline, read-out: T1/2 in plasma (converted)) of about 50 h, a half-life ([1]; half-life of SNDX-275 in humans, preliminary PK analysis) of 39 to 80 h and a Tmax ([1]; in some patients, read-out: earliest Tmax observed (converted)) of 0.5 h. For the same compound, the AUC ([1]; n=4, FIG. 6, read-out: mean AUC in patients experiencing DLTs) was 517 ± 276 ng·h/mL, the AUC ([1]; n=23, FIG. 6, read-out: mean AUC in patients without DLT) was 280 ± 121 ng·h/mL and the Tmax ([1]; q14-day schedule, read-out: median Tmax) was about 2 h. For the same compound, the “binding to albumin versus other plasma proteins” value (plasma proteins) was “no greater binding affinity to albumin than other plasma proteins”, the protein bound (plasma proteins) was “≈ 80%” and the Cmax ([2]; day 1 of cycle 1) was 18.5 ng/mL. For the same compound, the Cmax ([2]; day 1 of cycle 2) was 23.3 ng/mL, the concentration at 8 h ([2]; 7 mg dose, read-out: concentration 8 hours after the dose) was about 2 ng/mL and the “AUC with increasing doses” value ([3]; 4 to 10 mg/m^2) was “reached a plateau”. For the same compound, the “T1/2 (mean and SD), terminal half-life” value ([3]; All doses, n = 27) was 36 h, the AUC [3, 5] was 208 ± 86.1 ng·h/mL and the Cmax [3, 5] was 4.74 ± 3.41 ng/mL. The half-life ([3]; 4 mg/m2, 4 mg/m^2, first dose, with food, 7 patients, read-out: T1/2 (mean and SD) (converted)) was 36.6 ± 18.6 h, the Tmax ([3]; 4 mg/m2, 4 mg/m^2, first dose, with food, 7 patients, read-out: Tmax (median)) was 12 h and the Cmax ([3]; 6 mg/m2, 6 mg/m^2, first dose, with food, 7 patients) was 4.87 ± 1.76 ng/mL. The Tmax ([3]; 6 mg/m2, 6 mg/m^2, first dose, with food, 7 patients, read-out: Tmax (median)) was 12 h, the AUC ([3]; 6 mg/m2, 6 mg/m^2, first dose, with food, n = 5) was 351 ng·h/mL and the half-life ([3]; 6 mg/m2, 6 mg/m^2, first dose, with food, n = 5, read-out: T1/2 (mean and SD) (converted)) was 43.8 ± 16.4 h. For the same compound, the Cmax ([3]; 8 mg/m2, 8 mg/m^2, first dose, with food, 15 patients) was 53.1 ± 92.4 ng/mL, the Tmax ([3]; 8 mg/m2, 8 mg/m^2, first dose, with food, 15 patients, read-out: Tmax (median)) was 1 h and the AUC ([3]; 8 mg/m2, 8 mg/m^2, first dose, with food, n = 10) was 328 ng·h/mL. For the same compound, the half-life ([3]; 8 mg/m2, 8 mg/m^2, first dose, with food, n = 10, read-out: T1/2 (mean and SD) (converted)) was 33.4 ± 12.7 h, the Cmax ([3]; 10 mg/m2, 10 mg/m^2, first dose, with food, 6 patients) was 53.2 ± 58 ng/mL and the Tmax ([3]; 10 mg/m2, 10 mg/m^2, first dose, with food, 6 patients, read-out: Tmax (median)) was 1 h. For the same compound, the AUC ([3]; 10 mg/m2, 10 mg/m^2, first dose, with food, n = 5) was 312 ng·h/mL, the half-life ([3]; 10 mg/m2, 10 mg/m^2, first dose, with food, n = 5, read-out: T1/2 (mean and SD) (converted)) was 30.4 ± 13.9 h and the Tmax ([3]; All doses, 35 patients, read-out: Tmax (median)) was about 2 h. The half-life ([3]; All doses, n = 27, read-out: T1/2 (mean and SD), terminal half-life (converted)) was 35.6 ± 15 h, the Tmax ([3]; all dose levels, read-out: range of Tmax values) was 0.5 to 36 h and the “maximum tolerated dose (MTD)” value ([4]; Schedule A, 2-6 mg/m^2 biweekly) was “not reached”. The “drug-related grade 4 adverse events” value ([4]; human, in vivo) was “No drug-related grade 4 (gr4) adverse events (AEs) were reported”.
